System: liver fibrosis model in C57BL/6 mice induced by CCl4
Test: Prophylactic therapeutic efficacy in liver fibrosis model in C57BL/6 mice induced by CCl4
Type: in vivo
Description: 56 male C57BL/6 mice were randomize divided into false Model group (Group 1, n=6), Model group (Group 2, n=10), positive drug Obercholic acid group (Group 3, n=10, 30 mg/kg/d), compound A low-dose group (Group 4, n=10, 5 mg/kg/d), Compound A medium-dose (Group 5, n=10, 10 mg/kg/d), and Compound A high-dose group (Group 6, n=10, 20 mg/kg/d). Oral molding agent for molding three times a week, for 4 weeks, weighing before each dose. Compound A was administered orally once a day for a total of 28 days from the day of modeling. The model group was given an equal volume of drug vehicle and weighed before each dose. All animals fasted for 6 hours from 24 hours after the end of the last dose. Serum was collected and the concentrations of AST, ALT and TBIL in serum were detected. All animals were euthanized, the livers were collected, weighed, and photos of the gross anatomy of the livers were taken. The liver tissue was fixed in 10% formalin solution for histopathological examination, H&E staining and Sirius red staining.

[1] = high dose group (20 mg/kg/d), four weeks, p<0.05
[2] = obercholic acid 30 mg/kg/d, compound A 5, 10, 20 mg/kg/d

SMILES: CC(C)c1cnc(-c2cc(NC(=O)c3ccc(N4C[C@@H](C)N(C)[C@@H](C)C4)cc3C(F)(F)F)ccc2Cl)[nH]1 [Comp A, N-(3-(5-isopropyl-1H-imidazol-2-yl)-4-chlorophenyl)-2-trifluoromethyl-4-((3S,5R)-3,4,5-trimethylpiperazin-1-yl)benzamide]
- serum ALT, AST, and TBIL (5 mg/kg, 10 mg/kg, and 20 mg/kg daily for four consecutive weeks): Slight reductions
- effect on the inflammatory response of liver tissue (5, 10, 20 mg/kg daily for four weeks): little effect
- dose-dependent ALT and AST (5, 10, 20 mg/kg/d, four weeks): decreasing trend
- hepatocellular degeneration, necrosis and inflammatory cell infiltration (Compound A treatment groups 5, 10, 20 mg/kg/d): tendency to reduce
- TBIL compared with model group (Compound A, four weeks of treatment): not significantly decreased
- liver weight (after 4 weeks, compared with false model group, Obercholic acid 30 mg/kg/d, Compound A 5, 10, 20 mg/kg/d): no significant increase
- area of liver tissue fibrosis (compound A dose groups, model group 1.2%, no statistical difference): 0.8%
- changes of liver surface compared with model group (gross liver after 4 weeks, Obercholic acid 30 mg/kg/d, compound A 5, 10, 20 mg/kg/d): slightly alleviated
- ALT compared with model group [1]: significantly lower
- AST compared with model group [1]: significantly lower
- body weight (high-dose group 20 mg/kg, significant difference from the other groups): no significant body weight growth
- hepatic fibrosis area (Sirius red staining) compared with model group [2]: no significant difference
- total score of liver cell injury compared with model group [2]: not significantly different
- liver injury score (three dose groups (5, 10, 20 mg/kg), model group 6 points): 4-5 points

From patent US20190255042A1, “APPLICATION OF HEDGEHOG PATHWAY INHIBITOR IN TREATING FIBROSIS DISEASES” (IMPACT THERAPEUTICS, INC, priority 2016, published 2019)
